Experimental data reported in paper PMC6155626 (Molecules : A Journal of Synthetic Chemistry and Natural …, 2016).
≈ marks a conversion by molar mass, not a printed value.

Tests used:
[1] = test system: Xanthomonas oryzae pv. oryzae; test: microbe, parasite or virus in culture; type: cell-based; conditions: for Inhibition rate: X. oryzae, 200 μg/mL, average of three replicates; for inhibition at 100 µg/mL / inhibition at 200 µg/mL / EC50: Xanthomonas oryzae; for inhibition at 100 µg/mL: read-out: Inhibition rate, X. oryzae, 100 μg/mL, average of three replicates; for inhibition at 200 µg/mL: read-out: Inhibition rate, X. oryzae, 200 μg/mL, average of three replicates
[2] = test system: Xanthomonas axonopodis pv. citri; test: microbe, parasite or virus in culture; type: cell-based; conditions: Xanthomonas axonopodis; for inhibition at 100 µg/mL / inhibition at 200 µg/mL: read-out: Inhibition rate
Ralstonia solanacearum = test: microbe, parasite or virus in culture; type: cell-based; conditions: Ralstonia solanacearum; for inhibition at 100 µg/mL / inhibition at 200 µg/mL: read-out: Inhibition rate; for EC50: R. solanacearum

Structure (SMILES)	Inhibition rate [1] [%]	inhibition at 100 µg/mL [1] [%]	inhibition at 200 µg/mL [1] [%]	melting point [°C]	inhibition at 100 µg/mL [2] [%]	inhibition at 200 µg/mL [2] [%]	inhibition at 100 µg/mL (Ralstonia solanacearum) [%]	inhibition at 200 µg/mL (Ralstonia solanacearum) [%]	EC50 [1] [µg/mL]	EC50 [2] [µg/mL]	EC50 (Ralstonia solanacearum) [µg/mL]
CS(=O)(=O)c1nnc(COc2ccc(F)cc2)s1 [Compound 5II-1, 2-((4-Fluorophenoxy)methyl)-5-(methylsulfonyl)-1,3,4-thiadiazole]	99	92	84 to 99	107 to 109	36	40	49	50			
CS(=O)(=O)c1nnc(COc2ccccc2)o1 [Compound 5I-6, 2-(Methylsulfonyl)-5-(phenoxymethyl)-1,3,4-oxadiazole]		100	100		57	88	100	100	1.86 ± 0.23 (≈ 7.32 µM)	85 ± 4.32 (≈ 334 µM)	13.6 ± 2.12 (≈ 53.3 µM)
O=S(=O)(Cc1ccccc1)c1nnc(COc2ccc(Cl)cc2)s1 [Compound 5II-9, 2-(Benzylsulfonyl)-5-((4-chlorophenoxy)methyl)-1,3,4-thiadiazole]		14	19	140 to 141	23	14	18	17			
CS(=O)(=O)c1nnc(COc2ccc(Br)cc2)o1 [Compound 5I-3, 2-((4-Bromophenoxy)methyl)-5-(methylsulfonyl)-1,3,4-oxadiazole]		100	100	97 to 99	90	91	100	100	1.67 ± 0.22 (≈ 5.01 µM)	24.9 ± 2.52 (≈ 74.7 µM)	19.6 ± 0.98 (≈ 58.9 µM)
CCS(=O)(=O)c1nnc(COc2ccc(F)cc2)s1 [Compound 5II-6, 2-(Ethylsulfonyl)-5-((4-fluorophenoxy)methyl)-1,3,4-thiadiazole]		55	65	89 to 90	18	15	12	7			
CS(=O)(=O)c1nnc(COc2ccc(Cl)cc2Cl)s1 [Compound 5II-4, 2-((2,4-Dichlorophenoxy)methyl)-5-(methylsulfonyl)-1,3,4-thiadiazole]		18	16	160 to 162	20	23	15	18			
O=S(=O)(Cc1ccccc1)c1nnc(COc2ccc(Cl)cc2Cl)o1 [Compound 5I-12, 2-(Benzylsulfonyl)-5-((2,4-dichlorophenoxy)methyl)-1,3,4-oxadiazole]		70	98	121 to 122	23	26	20	33			
Cc1cc(Cl)ccc1OCc1nnc(S(C)(=O)=O)s1 [Compound 5II-5, 2-((4-Chloro-2-methylphenoxy)methyl)-5-(methylsulfonyl)-1,3,4-thiadiazole]		16	42	160 to 161	24	25	8	9			
CS(=O)(=O)c1nnc(COc2ccc(Br)cc2)s1 [Compound 5II-3, 2-((4-Bromophenoxy)methyl)-5-(methylsulfonyl)-1,3,4-thiadiazole]		28	30	114 to 115	18	25	7	26			
O=S(=O)(Cc1ccccc1)c1nnc(COc2ccc(Cl)cc2)o1 [Compound 5I-10, 2-(Benzylsulfonyl)-5-((4-chlorophenoxy)methyl)-1,3,4-oxadiazole]		48	90	126 to 128	62	74	19	24			
O=S(=O)(Cc1ccccc1)c1nnc(COc2ccc(Br)cc2)o1 [Compound 5I-11, 2-(Benzylsulfonyl)-5-((4-bromophenoxy)methyl)-1,3,4-oxadiazole]		38	56	142 to 143	16	11	13	18			
CCS(=O)(=O)c1nnc(COc2ccc(Cl)cc2Cl)s1 [Compound 5II-7, 2-((2,4-Dichlorophenoxy)methyl)-5-(ethylsulfonyl)-1,3,4-thiadiazole]		13	20	127 to 128	6	32	0	0			
O=S(=O)(Cc1ccccc1)c1nnc(COc2ccc(F)cc2)s1 [Compound 5II-8, 2-(Benzylsulfonyl)-5-((4-fluorophenoxy)methyl)-1,3,4-thiadiazole]		8	24	132 to 134	21	24	10	30			
O=S(=O)(Cc1ccccc1)c1nnc(COc2ccccc2)o1 [Compound 5I-14, 2-(Benzylsulfonyl)-5-(phenoxymethyl)-1,3,4-oxadiazole]		78	95	95 to 96	53	76	37	69			
Cc1cc(Cl)ccc1OCc1nnc(S(C)(=O)=O)o1 [Compound 5I-5, 2-((4-Chloro-2-methylphenoxy)methyl)-5-(methylsulfonyl)-1,3,4-oxadiazole]		100	100		54	100	100	100	1.67 ± 0.16 (≈ 5.52 µM)	96.8 ± 5.78 (≈ 320 µM)	14.9 ± 1.27 (≈ 49.3 µM)
O=S(=O)(Cc1ccccc1)c1nnc(COc2ccc(Br)cc2)s1 [Compound 5II-10, 2-(Benzylsulfonyl)-5-((4-bromophenoxy)methyl)-1,3,4-thiadiazole]		0	10	147 to 148	8	5	1	11			
Cc1cc(Cl)ccc1OCc1nnc(S(=O)(=O)Cc2ccccc2)s1 [Compound 5II-12, 2-(Benzylsulfonyl)-5-((4-chloro-2-methylphenoxy)methyl)-1,3,4-thiadiazole]		0	5	125 to 126	33	10	0	0			
Cc1cc(Cl)ccc1OCc1nnc(S(=O)(=O)Cc2ccccc2)o1 [Compound 5I-13, 2-(Benzylsulfonyl)-5-((4-chloro-2-methylphenoxy)methyl)-1,3,4-oxadiazole]		13	33	144 to 145	0	7	8	15			
CS(=O)(=O)c1nnc(COc2ccc(Cl)cc2)s1 [Compound 5II-2, 2-((4-Chlorophenoxy)methyl)-5-(methylsulfonyl)-1,3,4-thiadiazole]	84	73	84 to 99	119 to 120	16	27	45	56			
CCS(=O)(=O)c1nnc(COc2ccc(Cl)cc2Cl)o1 [Compound 5I-8, 2-((2,4-Dichlorophenoxy)methyl)-5-(ethylsulfonyl)-1,3,4-oxadiazole]		87	100		36	62	43	97			
O=S(=O)(Cc1ccccc1)c1nnc(COc2ccc(F)cc2)o1 [Compound 5I-9, 2-(Benzylsulfonyl)-5-((4-fluorophenoxy)methyl)-1,3,4-oxadiazole]		100	100	94 to 96	50	72	25	33			
CCS(=O)(=O)c1nnc(COc2ccc(F)cc2)o1 [Compound 5I-7, 2-(Ethylsulfonyl)-5-((4-fluorophenoxy)methyl)-1,3,4-oxadiazole]		100	100		53	65	99	100	0.52 ± 0.16 (≈ 1.82 µM)	52.2 ± 2.14 (≈ 182 µM)	7.75 ± 1.01 (≈ 27.1 µM)
O=S(=O)(Cc1ccccc1)c1nnc(COc2ccc(Cl)cc2Cl)s1 [Compound 5II-11, 2-(Benzylsulfonyl)-5-((2,4-dichlorophenoxy)methyl)-1,3,4-thiadiazole]		14	37	124 to 125	32	38	26	27			
